Source: PubChem BioAssay AID1963875 (Molecular Pharmacology Branch, DTP, NCI, 2024)

System: KRAS-mutant PDC complex spheroid viability
Assay: Anticancer human tumor 186277-243-T-J2-PDC patient-derived colon adenocarcinoma cell line growth inhibition [KRAS2]
Conditions: for IC50: curve of first compound; for viability, T/C: stronger effect = lower value; active means viability on the fitted dose curve at most 10% of control; inactive means the rest
Outline: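 Combination screen of spheroid viability in tumor-cell co-cultures with endothelial (HUVEC) and mesenchymal stem cell stroma. Each agent was tested in half-log dilutions, topping at clinical Cmax or at 10 microM without a known Cmax.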
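Wherever viability, T/C is given: viability read after seven days of compound exposure; 100% = DMSO vehicle-treated spheroids so lower means less viable.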

Cn1ncnc1[C@H]1c2n[nH]c(=O)c3cc(F)cc(c23)N[C@@H]1c1ccc(F)cc1 + C=CC(=O)N1CCN(c2nc(=O)n(-c3c(C)ccnc3C(C)C)c3nc(-c4c(O)cccc4F)c(F)cc23)C(C)C1
> 100 nM: IC50 (second compound 0.1 µM) | IC50 (second compound 0.316 µM) | IC50 (second compound 1 µM) | IC50 (second compound 3.16 µM)
inactive: viability, T/C (second compound 0.1 µM, first compound 0.000316 µM) 98.5% | viability, T/C (second compound 0.1 µM, first compound 0.001 µM) 97.1% | viability, T/C (second compound 0.1 µM, first compound 0.00316 µM) 111% | viability, T/C (second compound 0.1 µM, first compound 0.01 µM) 105% | viability, T/C (second compound 0.1 µM, first compound 0.0316 µM) 95% | viability, T/C (second compound 0.1 µM, first compound 0.1 µM) 75.8% | viability, T/C (second compound 0.316 µM, first compound 0.000316 µM) 106% | viability, T/C (second compound 0.316 µM, first compound 0.001 µM) 114% | viability, T/C (second compound 0.316 µM, first compound 0.00316 µM) 105% | viability, T/C (second compound 0.316 µM, first compound 0.01 µM) 103% | viability, T/C (second compound 0.316 µM, first compound 0.0316 µM) 87.8% | viability, T/C (second compound 0.316 µM, first compound 0.1 µM) 79% | viability, T/C (second compound 1 µM, first compound 0.000316 µM) 106% | viability, T/C (second compound 1 µM, first compound 0.001 µM) 105% | viability, T/C (second compound 1 µM, first compound 0.00316 µM) 108% | viability, T/C (second compound 1 µM, first compound 0.01 µM) 98.7% | viability, T/C (second compound 1 µM, first compound 0.0316 µM) 85.2% | viability, T/C (second compound 1 µM, first compound 0.1 µM) 67.2% | viability, T/C (second compound 3.16 µM, first compound 0.000316 µM) 99.6% | viability, T/C (second compound 3.16 µM, first compound 0.001 µM) 101% | viability, T/C (second compound 3.16 µM, first compound 0.01 µM) 76.5% | viability, T/C (second compound 3.16 µM, first compound 0.0316 µM) 61.6% | viability, T/C (second compound 3.16 µM, first compound 0.1 µM) 50.6% | viability, T/C (second compound 10 µM, first compound 0.000316 µM) 45% | viability, T/C (second compound 10 µM, first compound 0.001 µM) 60.2% | viability, T/C (second compound 10 µM, first compound 0.00316 µM) 51% | viability, T/C (second compound 10 µM, first compound 0.01 µM) 28.3% | viability, T/C (second compound 10 µM, first compound 0.0316 µM) 32.9% | viability, T/C (second compound 10 µM, first compound 0.1 µM) 24.1%
3.32 nM: IC50 (second compound 10 µM)
